According to PMC9889419 (Pharmacological Reports, 2022):
Like-named read-outs stand apart in the source and are kept apart here. Marks after values point to notes of the source that are not given here.

Tests used:
rats = details: ip; cited from earlier work
mice [1] = details: for MES: active at: mice, ip; for Number of animals active or toxic over the number tested: MES
mice [2] = assay: Rotarod test (neurotoxicity); type: in vivo; details: for Rotarod: neurotoxic at: mice, ip; for Number of animals active or toxic over the number tested: Rotarod;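 as to all read-outs here: in vivo neurotoxicity screen run within the NIH Epilepsy Therapy Screening Program (ETSP, formerly Anticonvulsant Screening Program)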
Procedure: (§1) The assays were carried out within the Epilepsy Therapy Screening Program (ETSP, previously known as the Anticonvulsant Screening Program, ASP), Epilepsy Branch, National Institute of Neurological and Communicative Disorders and Stroke, National Institutes of Health in Rockville, MD, USA [23].
The obtained compounds were screened for antiseizure activity and neurotoxicity in vivo within the Epilepsy Therapy Screening Program (ETSP, previously known as the Anticonvulsant Screening Program, ASP), Epilepsy Branch, National Institute of Neurological and Communicative Disorders and Stroke, National Institutes of Health in Rockville, MD, USA [23].

mice [3] = details: ip; cited from earlier work
mice [4] = details: ip, cited from earlier work
mice [5] = details: 32 mA, ip; cited from earlier work
mice [6] = assay: Antiseizure activity and preliminary toxicity screening; type: in vivo; details: ip
guinea pigs [7] = details: 0.5%, cited from earlier work
mice [8] = assay: Subcutaneous pentylenetetrazole seizure test (ScPTZ, SCMET); type: in vivo; details: mice, ip, 0.5 h
Procedure: as §1

mice [9] = details: cited from earlier work
guinea pigs [10] = assay: Corneal anesthesia; type: in vivo; details: 5 min
Procedure: A. Corneal anesthesia. […] The corneal reflex was examined by irritation of right eye conjunctiva (studied eye) and a left eye conjunctiva (control eye) by horsehair. The strength of local anesthetic activity was determined from the moment of solution instillation to the moment of reflex return. The presence or lack of corneal reflex were assessed. The eye conjunctiva irritation was done 6 times (every 5 s) with the interval of 5 min during the first 30 min [31].

mice [11] = assay: Tail immersion test (local anesthetic activity); type: in vivo
Procedure: The tail immersion test in mice. […] The method was performed by subcutaneous (sc) injection of the tested substance dissolved in saline, at a concentration range 0.06–2%, in a constant volume of 0.2 mL about 1 cm from the root of the mouse tail. Fifteen minutes later, the 3-cm distal part of the tail was immersed into temperature-controlled water (50 ± 0.5 °C). The reaction time (latency until the tail is pulled away) was measured by the means of a chronometer. In this assay the cut-off was 20 s [29].

mice [12] = assay: Formalin test (first screening); type: in vivo; details: ip
Procedure: Formalin test. The first screening in doses 15 and 30 mg/kg was performed at the Jagiellonian University-Medical College. […] After 30 min, animals were injected with 20 μL of a 0.5% formalin solution into the plantar surface of the hind paw. The total time spent by animal licking or biting the injected paw was assessed for the following 40 min.

guinea pigs [13] = assay: Infiltration anesthesia (intradermal wheal test); type: in vivo
Procedure: A painful reaction to a prick of the skin at the centre of the wheal three times and every 5 s with 5 min intervals during the first 30 min of observation was tested. The experiment was continued to achieve a return of a reaction to the prick. The control wheal was done by an intradermal injection of 0.1 mL of 0.9% NaCl [25]. Local anesthesia was determined by calculating the ratio of the number of positive responses (no flinch) to the number of negative responses (flinch).

mice [14] = assay: 6 Hz test; type: in vivo; details: for Number of animals active or toxic over the number tested: 6 Hz
Procedure: The 6 Hz model test was carried out according to the protocol originally described by Brown et al. [54] and more recently by Barton et al. [55] and Kamiński et al. [47] and is a model of pharmacoresistant epilepsy [56].

## NC(=O)N1c2ccccc2CC(=O)c2ccccc21 [Oxcarbazepine]
rats
  SNL MED: 10 mg/kg

## Cc1cccc(Cl)c1OCCNCC(C)O (centres unmarked) [Compound 1, R,S-1-((2-(2-chloro-6-methylphenoxy)ethyl)amino)propan-2-ol]
Mice [1]; 0.5 h
  MES: active at: 30 mg/kg
Mice [2]; 0.5 h
  Rotarod: neurotoxic at: 100 mg/kg

## CC(=O)[C@H]1CC[C@H]2[C@@H]3CC[C@H]4C[C@H](O)CC[C@]4(C)[C@H]3CC[C@]12C [Allopregnanolone]
Mice [3]
  ScPTZ ED50: 13.7 (10.1–18.7) mg/kg
  ScPTZ TPE: 0.17 h
Mice [4]
  MES ED50: > 100 mg/kg
  MES TPE: 0.17 h
Mice [5]
  6 Hz ED50: 14.2 (10.3–19.4) mg/kg
  6 Hz TPE: 0.17 h

## Cc1cccc(Cl)c1OCCNC(C)(CO)CO [Compound 7, 2-((2-(2-chloro-6-methylphenoxy)ethyl)amino)-2-methylpropane-1,3-diol]
Mice [1]; 0.5 h
  MES: active at: MES: active at 100 Rotarod: neurotoxic at 100 mg/kg
other
  melting point: 83 to 85 °C
Mice [2]; 0.5 h
  Rotarod: neurotoxic at: MES: active at 100 Rotarod: neurotoxic at 100 mg/kg

## Cc1cccc(Cl)c1OCCNCC(O)c1ccccc1 (centres unmarked) [Compound 9, R,S-2-((2-(2-chloro-6-methylphenoxy)ethyl)amino)-1-phenylethan-1-oll]
Mice [1]; 0.5 h
  MES: active at: 30 mg/kg
Mice [2]; 0.5 h
  Rotarod: neurotoxic at: 100 mg/kg

## Cc1cccc(Cl)c1OCCN[C@@H]1CCCC[C@H]1O (relative stereo) [Compound 8, R,S-trans-2-((2-(2-chloro-6-methylphenoxy)ethyl)amino)cyclohexan-1-ol]
Mice [1]; 0.5 h
  MES: active at: 30 mg/kg
Mice [2]; 0.5 h
  Rotarod: neurotoxic at: 100 mg/kg

## Cc1cccc(Cl)c1OCCNC(C)CO (centres unmarked) [Compound 2, R,S-2-((2-(2-chloro-6-methylphenoxy)ethyl)amino)propan-1-ol]
Mice [1]; 0.5 h
  MES: active at: MES: active at 100 Rotarod: neurotoxic at 100 mg/kg
Mice [2]; 0.5 h
  Rotarod: neurotoxic at: MES: active at 100 Rotarod: neurotoxic at 100 mg/kg

## CC(C)NCC(O)COc1cccc2ccccc12 (centres unmarked) [Propranolol, propranolol]
Mice [4]; Table 3
  MES ED50: MES: ED50 = 15–20 mg/kg

## Cc1cccc(Cl)c1OCC(=O)N[C@@H](C)C(=O)O [Compound 15, S-(-)-(2-(2-chloro-6-methylphenoxy)acetyl)alanine]
Mice [6]
  Antiseizure activity and preliminary toxicity screening: result: No activity

## CCN(CC)CC(=O)Nc1c(C)cccc1C [Lidocaine]
Guinea pigs [7]; 240 min
  Inhibition of pain reaction: 22.2%
Guinea pigs [7]; 24 h
  Inhibition of pain reaction: 0%

## CCC(CO)NC(=O)COc1c(C)cccc1Cl (centres unmarked) [Compound 12, R,S-2-(2-chloro-6-methylphenoxy)-N-(1-hydroxybutan-2-yl)acetamide]
Mice [8]
  ScPTZ: active at: 100 mg/kg
Mice [1]; 0.5 h
  MES: active at: 300 mg/kg
Mice [2]; 0.5 h
  Rotarod: neurotoxic at: 300 mg/kg

## Cc1cccc(Cl)c1OCC(=O)NC(C)C(=O)O (stereo not drawn) [Compound 13, R,S-(2-(2-chloro-6-methylphenoxy)acetyl)alanine]
Mice [6]
  Antiseizure activity and preliminary toxicity screening: result: No activity

## Cc1cccc(Cl)c1OCC(=O)NC(C)CO (centres unmarked) [Compound 11, R,S-2-(2-chloro-6-methylphenoxy)-N-(1-hydroxypropan-2-yl)acetamide]
Mice [1]; 0.5 h
  MES: active at: 300 mg/kg
Mice [2]; 0.5 h
  Rotarod: neurotoxic at: 100 mg/kg

## Cc1cccc(Cl)c1OCC(=O)NCC(C)O (centres unmarked) [Compound 10, R,S-2-(2-chloro-6-methylphenoxy)-N-(2-hydroxypropyl)acetamide]
Mice [8]
  ScPTZ: active at: 300 mg/kg
Mice [2]; 0.5 h
  Rotarod: neurotoxic at: 300 mg/kg

## Cc1cccc(C)c1NC(=O)C1CCCCN1C (centres unmarked) [Mepivacaine]
Mice [9]; 1.0%
  Prolongation of the time reaction: 94.63%
  Reaction time to painful stimulus: 14.13 ± 2.67 s
Mice [9]; 2.0%
  Prolongation of the time reaction: 116.67%
  Reaction time to painful stimulus: 15.73 ± 2.09 s

## CCC(NC(=O)COc1c(C)cccc1Cl)C(=O)O (centres unmarked) [Compound 16, R,S-2-(2-(2-chloro-6-methylphenoxy)acetamido)butanoic acid]
Mice [6]
  Antiseizure activity and preliminary toxicity screening: result: No activity

## CCC(O)CNCCOc1c(C)cccc1Cl (centres unmarked) [Compound 3, R,S-1-((2-(2-chloro-6-methylphenoxy)ethyl)amino)butan-2-ol]
Mice [1]; 0.5 h
  MES: active at: 30 mg/kg
Mice [2]; 0.5 h
  Rotarod: neurotoxic at: 100 mg/kg

## NCC1(CC(=O)O)CCCCC1 [Gabapentin]
rats
  SNL ED50: 32 mg/kg

## CC[C@@H](CO)NCCOc1c(C)cccc1Cl.Cl [Compound 6a, S-( +)-2-((2-(2-chloro-6-methylphenoxy)ethyl)amino)butan-1-ol hydrochloride]
Guinea pigs [10]; 0.5%
  Inhibition of pain reaction: 75*** %
Guinea pigs [10]; […]
  Inhibition of pain reaction: 63.89*** %
Mice [11]; 0.031%
  Prolongation of the time reaction: 60.0%
  Reaction time to painful stimulus: 5.6 ± 0.9 s
Mice [11]; 0.094%
  Prolongation of the time reaction: 82.9%
  Reaction time to painful stimulus: 6.4 ± 0.8 s
Mice [11]; 0.125%
  Prolongation of the time reaction: 348.6%
  Reaction time to painful stimulus: 15.7 ± 1.8 s
Mice [11]; 0.5%
  Prolongation of the time reaction: 457.1%
  Reaction time to painful stimulus: 19.5 ± 0.5 s
Mice [11]; 2.0%
  Prolongation of the time reaction: 437.1%
  Reaction time to painful stimulus: 18.8 ± 1.9 s
Mice [11]; […]
  Prolongation of the time reaction: 5.7%
  Reaction time to painful stimulus: 3.7 ± 0.6 s
Mice [12]; 30.0 mg/kg
  % of effect (I phase): 33.4%
  % of effect (II phase): 10.2%
  Time of licking paw ± SEM (I phase): 59.7 ± 6.4 s
Mice [12]
  formalin test (I phase): active at: 30 mg/kg
Mice [1]; 0.5 h
  MES: active at: MES: active at 100 Rotarod: neurotoxic at 100 mg/kg
Mice [2]; 0.5 h
  Rotarod: neurotoxic at: MES: active at 100 Rotarod: neurotoxic at 100 mg/kg
Guinea pigs [13]; 0.5%, 30 min
  Inhibition of pain reaction: 93.75*** %
Guinea pigs [13]; 0.5%, 60 min
  Inhibition of pain reaction: 43.75* %
Guinea pigs [13]; 0.5%, 120 min
  Inhibition of pain reaction: 25%
Guinea pigs [13]; […], 5 min
  Inhibition of pain reaction: 94.44*** %
Guinea pigs [13]; […], 60 min
  Inhibition of pain reaction: 38.89* %

## Cc1cccc(Cl)c1OCC(=O)N[C@H](C)C(=O)O [Compound 14, R-(+)-(2-(2-chloro-6-methylphenoxy)acetyl)alanine]
Mice [6]
  Antiseizure activity and preliminary toxicity screening: result: No activity

## Cc1cccc(Cl)c1OCC(=O)N[C@H]1CC[C@H](O)CC1 [Compound 18, Trans-2-(2-chloro-6-methylphenoxy)-N-(4-hydroxycyclohexyl)acetamide]
Mice [14]; 30 mg/kg, 0.5 h
  Number of animals active or toxic over the number tested: 0/4
Mice [14]; 30 mg/kg, 2.0 h
  Number of animals active or toxic over the number tested: 0/4
Mice [14]; 100 mg/kg, 0.5 h
  Number of animals active or toxic over the number tested: 4/4
Mice [14]; 100 mg/kg, 2.0 h
  Number of animals active or toxic over the number tested: 0/4
Mice [14]; 300 mg/kg, 0.5 h
  Number of animals active or toxic over the number tested: 4/4
Mice [14]; 300 mg/kg, 2.0 h
  Number of animals active or toxic over the number tested: 4/4
Mice [14]; mice, ip, 0.5 h
  8 Hz: active at: 100 mg/kg
Mice [1]; 30 mg/kg, 0.5 h
  Number of animals active or toxic over the number tested: 3/4
Mice [1]; 30 mg/kg, 2.0 h
  Number of animals active or toxic over the number tested: 0/4
Mice [1]; 100 mg/kg, 0.5 h
  Number of animals active or toxic over the number tested: 4/4
Mice [1]; 100 mg/kg, 2.0 h
  Number of animals active or toxic over the number tested: 0/4
Mice [1]; 300 mg/kg, 0.5 h
  Number of animals active or toxic over the number tested: 4/4
Mice [1]; 300 mg/kg, 2.0 h
  Number of animals active or toxic over the number tested: 4/4
Mice [1]; 0.5 h
  MES: active at: 30 mg/kg
Mice [2]; 30 mg/kg, 0.5 h
  Number of animals active or toxic over the number tested: 0/8
Mice [2]; 30 mg/kg, 2.0 h
  Number of animals active or toxic over the number tested: 0/8
Mice [2]; 100 mg/kg, 0.5 h
  Number of animals active or toxic over the number tested: 2/8
Mice [2]; 100 mg/kg, 2.0 h
  Number of animals active or toxic over the number tested: 0/8
Mice [2]; 300 mg/kg, 0.5 h
  Number of animals active or toxic over the number tested: 8/8 (sedated)
Mice [2]; 300 mg/kg, 2.0 h
  Number of animals active or toxic over the number tested: 0/8 (unable to grasp rotarod)
Mice [2]; 0.5 h
  Rotarod: neurotoxic at: 100 mg/kg

## O=C1NC(=O)C(c2ccccc2)(c2ccccc2)N1 [Phenytoin]
Mice [9]; 1.0%
  Prolongation of the time reaction: 18%
  Reaction time to painful stimulus: 5.72 ± 0.63 s
Mice [9]; 2.0%
  Prolongation of the time reaction: 84%
  Reaction time to painful stimulus: 8.90 ± 0.80 s
